SMILES strings stand for the structures. Counter-ions that a name gives are not always drawn. A value given as a limit tells only on which side of the number the result lay.

The conditions of data set [1]: background statement; cited from earlier work.
Data set [2] in a line: in vivo. Conditions: rabbit, po, 5 mg/kg.
A short description of data set [3]: Acute toxicity test, oral route. Conditions: mouse, in vivo, aqueous solution, groups of three ICR-strain male mice. How it is done:
The cromoglycic acid derivatives produced in Examples 1, 4, 7, 11 and 12 were administered, each in the form of an aqueous solution, to groups of three ICR-strain male mice by the oral route.

For data set [4] the following is noted: rabbit, in vivo, po, 5 mg/kg, 360 min.

Consider `O=C(O)c1cc(=O)c2c(OCC(O)COc3cccc4oc(C(=O)O)cc(=O)c34)cccc2o1` [Cromoglycic acid], for which the “absorption in the digestive tract” value in data set [1] is “cannot be absorbed in the digestive tract”. Also, the dose excreted at 6 h in data set [2] was found to be 3.5%.

Regarding `CCOC(=O)c1cc(=O)c2c(OCC(COc3cccc4oc(C(=O)OCC)cc(=O)c34)OC(=O)[C@@H](N)CCCCN)cccc2o1` [Example 1, diethyl L-lysylcromoglycate dihydrochloride], the LD50 in data set [3] is above 1000 mg/kg. The “0-6 Hr urinary recovery” value in data set [4] stood at 32.6%.

For `CCOC(=O)c1cc(=O)c2c(OCC(COc3cccc4oc(C(=O)OCC)cc(=O)c34)OC(=O)[C@H](C)N)cccc2o1` [Example 4, diethyl L-alanylcromoglycate hydrochloride], the LD50 in data set [3] is above 1000 mg/kg. Further, the “0-6 Hr urinary recovery” value in data set [4] is recorded as 20.2%.

`CCOC(=O)c1cc(=O)c2c(OCC(COc3cccc4oc(C(=O)OCC)cc(=O)c34)OC(=O)CNC(=O)[C@H](C)N)cccc2o1` [Example 7, diethyl N-(L-alanyl)glycylcromoglycate hydrochloride] showed an LD50 in data set [3] above 1000 mg/kg. The “0-6 Hr urinary recovery” value in data set [4] is on record as 21.4%.

As for `CCOCCOC(=O)c1cc(=O)c2c(OCC(COc3cccc4oc(C(=O)OCCOCC)cc(=O)c34)OC(=O)[C@@H](N)CCCCN)cccc2o1` [Example 11, di(2-ethoxyethyl) L-lysylcromoglycate dihydrochloride], in data set [3], the median lethal dose (LD50) was above 1000 mg/kg. In addition, the “0-6 Hr urinary recovery” value in data set [4] is reported as 25.4%.

In data set [3], `CCOCCOC(=O)c1cc(=O)c2c(OCC(COc3cccc4oc(C(=O)OCCOCC)cc(=O)c34)OC(=O)[C@H](C)N)cccc2o1` [Example 12, di(2-ethoxyethyl) L-alanylcromoglycate hydrochloride] showed an LD50 above 1000 mg/kg. The “0-6 Hr urinary recovery” value in data set [4] is recorded as 21.8%.

These data come from patent US4847286A, “Cromoglycic acid derivatives, method of production thereof and pharmaceutical composition” (priority 1985, dated 1989).
